Laboratory results from patent publication US20100119646A1, “Dihydroeugenol as Additive for feed” (DSM IP ASSETS B.V., priority 2007, published 2010).
Where two headings read alike, the source gives them in different places.

Assays:
[1] = system: total facultative anaerobic bacteria; assay: Gut microflora modulation in vivo, ileo-rectal contents of anastomosed piglets: total facultative anaerobic counts on Brucella agar; details: 300 ppm in feed; mean CFU per g ileal content dry matter; ten piglets; not significant
[2] = system: Enterococcus spp; assay: Gut microflora modulation in vivo, ileo-rectal contents of anastomosed piglets: Enterococcus spp on Enterococci agar; details: 300 ppm in feed; ten piglets
[3] = type: in vivo; details: for FCR (kg/kg) / Feed intake / DWG / DWG relative to basal diet A (100) / FCR relative to basal diet A (100) / Feed intake relative to basal diet A (100): 400 ppm in diet (mixture 1: 150 ppm); for FCR (kg/kg) / Feed intake: mean ± standard deviation of 3 determinations; for DWG: mean ± standard deviation of 19 determinations; for DWG relative to basal diet A (100) / FCR relative to basal diet A (100) / Feed intake relative to basal diet A (100): value in brackets, control A = (100); for improvement of feed conversion ratio versus controls: 400 ppm in diet
[4] = system: total lactic acid bacteria; assay: Gut microflora modulation in vivo, ileo-rectal contents of anastomosed piglets: lactic acid bacteria on MRS agar; details: ten piglets
[5] = system: Enterobacteriacae; assay: Gut microflora modulation in vivo, ileo-rectal contents of anastomosed piglets: Enterobacteriacae on V.R.B.D agar; details: mean CFU per g ileal content dry matter, ten piglets, not significant; for total Enterobacteriacae counts decreased relative to the control: 300 ppm in feed
[6] = system: Escherichia coli; assay: Gut microflora modulation in vivo, ileo-rectal contents of anastomosed piglets: Escherichia coli counts; details: mean CFU per g ileal content dry matter, ten piglets, not significant
[7] = system: Staphylococcus spp; assay: Gut microflora modulation in vivo, ileo-rectal contents of anastomosed piglets: Staphylococcus spp on Baird Parker agar; details: 300 ppm in feed; ten piglets
[8] = 300 ppm in feed, mean CFU per g ileal content dry matter, not significant

Structure (SMILES)	total facultative anaerobic bacteria counts increased relative to the control [1]	effect on the population of Enterococcus spp (in words) [2]	FCR (kg/kg) ([3]; day 0-14)	Feed intake ([3]; day 0-14)	DWG ([3]; day 0-14)	DWG relative to basal diet A (100) ([3]; day 0-14)	FCR relative to basal diet A (100) ([3]; day 0-14)	Feed intake relative to basal diet A (100) ([3]; day 0-14)	FCR (kg/kg) ([3]; day 0-29)	Feed intake ([3]; day 0-29)	DWG ([3]; day 0-29)	DWG relative to basal diet A (100) ([3]; day 0-29)	FCR relative to basal diet A (100) ([3]; day 0-29)	Feed intake relative to basal diet A (100) ([3]; day 0-29)	total Enterobacteriacae counts decreased relative to the control [5]	other results
Cc1cccc(C)c1O [2,6-dimethylphenol]	37%	negative effect	1.886 ± 0.06 kg/kg	350 ± 5 g/day	186 ± 45 g	(103)	(99)	(103)	1.914 ± 0.053 kg/kg	694 ± 27 g/day	272 ± 53 g	(105)	(100)	(106)	68%	effect on the total lactic acid bacteria (in words) ([4]; 300 ppm in feed): neutral effect
Oc1ccc(CC=Cc2ccccc2)cc1 [4-cinnamylphenol]			1.82 ± 0.058 kg/kg	345 ± 42 g/day	193 ± 41 g	(107)	(96)	(102)	1.953 ± 0.048 kg/kg	670 ± 72 g/day	262 ± 53 g	(101)	(102)	(102)	36%	Escherichia coli counts decreased relative to the control ([6]; 300 ppm in feed): 42%; total lactic acid bacteria counts decreased relative to the control [4, 8]: 22%
O=C1/C(=C/c2ccc(O)c(O)c2)Oc2cc(O)cc(O)c21 [aureusidin]			1.965 ± 0.21 kg/kg	332 ± 52 g/day	189 ± 61 g	(104)	(103)	(98)	1.968 ± 0.018 kg/kg	686 ± 72 g/day	275 ± 48 g	(106)	(103)	(104)		Escherichia coli counts decreased relative to the control ([6]; 150 ppm in feed): 66%; total lactic acid bacteria counts decreased relative to the control ([4]; 150 ppm in feed, mean CFU per g ileal content dry matter, not significant): 17%; Enterobacteriacae counts decreased relative to the control ([5]; 150 ppm in feed): 30%
CCCc1ccc(O)c(OC)c1 [dihydroeugenol, 2-methoxy-4-propylphenol]	12%	neutral effect	1.776 ± 0.034 kg/kg	364 ± 46 g/day	208 ± 39 g	(115)	(93)	(107)	1.88 ± 0.08 kg/kg	708 ± 85 g/day	285 ± 33 g	(110)	(98)	(108)	67%	effect on the population of Staphylococcus spp (in words) [7]: neutral effect; improvement of feed conversion ratio versus controls ([3]; first 14 days of the experiment): 7%; improvement of feed conversion ratio versus controls ([3]; whole observation period (29 days)): 2%; improvement of the daily weight gain comparatively to the non supplemented control ([3]; whole observation period (29 days), dihydroeugenol 400 ppm, mixture 1 150 ppm): 10%; total lactic acid bacteria counts increased relative to the control [4, 8]: 26%
